{
  "source": "patent EP1270558B1",
  "about": "“\"Compound for the treatment of atherosclerotic-thrombotic pathological conditions\"” (Casagrande, Cesare, priority 2001, dated 2003)",
  "key": {"[1]": {"system": "platelet-rich plasma (PRP)", "assay": "Platelet aggregation in platelet-rich plasma (aggregometer, light transmittance)", "format": "cell-based", "conditions": "for IC50: Homo sapiens, Platelet, 10 min, 10 min incubation", "protocol": "Platelet aggregation experiments were performed on platelet-rich plasma (PRP) prepared from blood of healthy human subjects, who had not taken cyclooxygenase inhibitors (acetylsalicylic acid, non-steroidal antiinflammatory agents) for at least two weeks. Blood was collected in test tubes containing a 3.2 % sodium citrate solution (1/10 of blood volume) and immediately centrifuged at 150 x g for 15 minutes. Samples of PRP were further centrifuged at 12,000 x g in order to obtain platelet-poor plasma (PPP), used for calibration of light transmittance of the double-channel aggregometer, fixing the transmittance of PRP as 10 % and that of PPP as 90 %. Platelet aggregation in PRP of each subject was tested measuring the percent increase in transmittance under the addition of increasing amounts of sodium arachidonate, in concentrations in the range from 300 to 900 µM, or of collagen, in concentrations in the range from 0.5 to 2.5 µg/ml, or of U-46619, in concentrations in the range from 0.2 to 1.6 µM. […] In this way the threshold concentration, i.e., the concentration inducing a submaximal irreversible aggregation was assessed in each subject with the three agents.\nPRP samples of subjects not responding to the maximal concentrations were discarded."}, "thromboxane synthesis": {"system": "thromboxane synthesis", "assay": "Thromboxane synthesis in clotting blood (serum TxB2 by radioimmunoassay)", "format": "cell-based", "conditions": "human blood clotted 60 min at 37°C", "protocol": "Test compounds were added in a series of concentrations ranging from 10^-7 M to 10^-3 M to samples of blood from healthy human subjects, who had not taken cyclooxygenase inhibitors (acetylsalicylic acid, non-steroidal antiinflammatory agents) for at least two weeks. The blood samples were allowed to clot for 60 min in a bath at 37°C, and then centrifuged at 2500 x g for 10 min. The serum was separated and kept frozen at -20°C for the determination of TxB2 by radioimmunoassay. TxB2 is the stable metabolite into which thromboxane A2 is rapidly converted."}, "[2]": {"system": "transcellular synthesis of prostacyclin", "assay": "Transcellular prostacyclin synthesis: PRP layered on acetylsalicylic acid-pretreated endothelial cells (6-keto-prostaglandin F1α by radioimmunoassay)", "format": "cell-based, bovine", "protocol": "The effects on the transcellular synthesis of prostacyclin from endoperoxides generated in platelets were assessed by layering platelet rich plasma (PRP), obtained from healthy human subjects as described above, on cultured bovine endothelial cells (5 x 10^5 cells/well). The endothelial cells were pretreated with acetylsalicylic acid (10^-4 M) in order to inhibit the direct synthesis of endoperoxides, and washed twice with Dulbecco's phosphate buffered saline. Then to individual samples of endothelial cells there were added at 37°C while shaking on an oscillating platform, 0.5 ml of PRP samples pretreated with the test compounds in various concentrations, ranging from 10^-7 M to 10 ^-3 M. Collagen (0.5 µg/ml) was then added to each sample. After 2 minutes of contact at 37°C, PRP was removed and centrifuged at 12,000 x g, and the supernatant was frozen and kept at -20°C for the determination of 6-keto-prostaglandin F1α by radioimmunoassay.\n6-Keto-prostaglandin F1α is a stable metabolite into which prostacyclin is rapidly converted."}, "rabbit aortae": {"system": "rabbit aortae", "assay": "Vascular relaxation of precontracted aortic rings in vitro", "format": "cell-based", "conditions": "for EC50: Oryctolagus cuniculus, read-out: calculated EC50", "protocol": "The ability to induce vascular relaxation by acting as a donor of nitric oxide was tested in vitro on rabbit aortae. Rings of aortae were suspended in a Krebs-Henseleit solution at 37°C, submitted to a 1 g tension and connected to a force transducer."}, "[3]": {"conditions": "human PRP on acetylsalicylic acid-treated bovine endothelial cells, collagen 0.5 µg/ml"}, "[4]": {"conditions": "rabbit aortic rings contracted with norepinephrine (10^-6 M)"}},
  "note": "Where two headings read alike, the source gives them in different places.",
  "data": [
    {"smiles": "COc1ccc(C(=O)N[C@H]2CC[C@H](O[N+](=O)[O-])CC2)cc1C(=O)NCc1cccnc1", "note": "[4-methoxy-N^1-(4-trans-nitrooxycyclohexyl)-N^3-(3-pyridinylmethyl)-1,3-benzenedicarboxamide]", "values": [
      {"measurement": "IC50", "setting": "[1]; aggregation induced by U-46619 (threshold concentration)", "result": 33, "unit": "µM"},
      {"measurement": "IC50", "setting": "[1]; aggregation induced by arachidonic acid (threshold concentration)", "result": 12, "unit": "µM"},
      {"measurement": "IC50", "setting": "[1]; aggregation induced by collagen (threshold concentration)", "result": 22, "unit": "µM"},
      {"measurement": "IC50", "setting": "thromboxane synthesis; 1 h, read-out: IC50 (inhibit thromboxane synthesis)", "result": 18, "unit": "µM"},
      {"measurement": "concentration from which production of the prostacyclin metabolite was increased", "setting": "[2]; [3]", "result": "10^-6 M"},
      {"measurement": "production of the prostacyclin metabolite (effect in words)", "setting": "[2]; [3]", "result": "markedly increased"},
      {"measurement": "production of the prostacyclin metabolite (6-keto-prostaglandin F1α), level reached", "setting": "[2]; human PRP on acetylsalicylic acid-treated bovine endothelial cells, collagen 0.5 µg/ml, up to", "result": "800 to 1600", "unit": "pg/mL"},
      {"measurement": "level times higher of the amount produced in basal conditions by endothelial cells not submitted to cyclooxygenase inhibition", "setting": "[2]; relative to basal production of untreated endothelial cells", "result": "8-16 times"},
      {"measurement": "EC50", "setting": "rabbit aortae; norepinephrine-contracted rabbit aortic rings, methylene blue 10^-5 M in the bath", "result": 55, "unit": "µM"},
      {"measurement": "EC50", "setting": "rabbit aortae; [4]", "result": 3.2, "unit": "µM"},
      {"measurement": "relaxation in aortic rings", "setting": "rabbit aortae; aortic rings contracted with 5-hydroxytryptamine", "result": "similarly able to produce relaxation"},
      {"measurement": "relaxation in aortic rings", "setting": "rabbit aortae; aortic rings contracted with U-46619", "result": "similarly able to produce relaxation"},
      {"measurement": "concentration inducing a complete relaxation of the aortic ring", "setting": "rabbit aortae; [4]", "result": "10^-4 M"}
    ]},
    {"smiles": "O=C(O)Cc1ccc(CCNS(=O)(=O)c2ccc(Cl)cc2)cc1", "note": "[daltroban, p-[2-(p-chlorobenzenesulfonamido)ethyl]phenylacetic, reference compound]", "values": [
      {"measurement": "effect on thromboxane synthesis", "setting": "thromboxane synthesis", "result": "did not show any effect"},
      {"measurement": "production of the prostacyclin metabolite (effect in words)", "setting": "[2]; [3]", "result": "did not stimulate the synthesis of prostacyclin"}
    ]},
    {"smiles": "O=C(O)/C=C/c1ccc(Cn2ccnc2)cc1", "note": "[ozagrel, (E)-3-[4-(1H-imidazol-1-ylmethyl)-phenyl]-2-propenoic acid, reference compound]", "values": [
      {"measurement": "inhibitory activity in the aggregation induced by collagen", "setting": "[1]; human PRP, up to 10^-3 M concentrations", "result": "did not show any significant inhibitory activity"}
    ]}
  ]
}
